Laboratory results: US5883107A, “Arginine mimic derivatives as enzyme inhibitors” (Corvas International, Inc., priority 1995, dated 1999)
Read-outs that look alike come from different tables or passages of the source.

What was measured:
[1] = target: T1, trypsin (Bos taurus, UniProt P00760); assay: In vitro enzyme assay for specificity: trypsin; format: biochemical, bovine; conditions: 0.5 nM enzyme, 30 minute incubation, read-out: IC50 for inhibition of trypsin
T1 construct: bovine pancreatic trypsin; purchased Worthington Biochemical Corp. TRL3; host or cells: bovine pancreas
T1 sequence (P00760 24-246): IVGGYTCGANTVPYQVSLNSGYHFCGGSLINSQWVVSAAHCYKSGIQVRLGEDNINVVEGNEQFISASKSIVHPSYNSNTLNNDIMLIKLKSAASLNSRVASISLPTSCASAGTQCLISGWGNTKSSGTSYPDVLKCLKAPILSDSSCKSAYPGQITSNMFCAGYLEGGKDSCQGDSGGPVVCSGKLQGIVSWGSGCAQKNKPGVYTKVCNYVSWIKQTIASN
Protocol: Trypsin catalytic activity was determined using the chromogenic substrate, S-2222 (benzoyl-L-isoleucine-L-glutamic acid-[gamma-methyl ester]-L-arginine-p-nitroanilide), which was obtained from Kabi Diagnostica. […] Purified (3×-crystallized; TRL3) bovine pancreatic trypsin was obtained from Worthington Biochemical Corp. The enzyme was reconstituted in deionized water and diluted into HBSA prior to assay in which the final concentration was 0.5 nM.

[2] = tested on: thrombotic occlusion of the rat carotid artery; assay: Rat model of FeCl3-induced platelet-dependent arterial thrombosis; format: in vivo; conditions: iv, 1 h, read-out: ED50, dose that prevents complete thrombotic occlusion in 50% of animals tested
[3] = target: alpha-thrombin (Homo sapiens, UniProt P00734); assay: In vitro enzyme assay for specificity: thrombin; format: biochemical; conditions: first of the two values in the cell (two isomeric pair), or the only value; 0.25 nM enzyme, 30 minute incubation; read-out: IC50 for inhibition of alpha-thrombin amidolytic activity
Protocol: The buffer used for all assays was HBSA (10 mM HEPES, pH 7.5, 150 mM sodium chloride, 0.1% bovine serum albumin). […] Following a 30 minute incubation at ambient temperature, 50 microliters of the substrate at the concentrations specified below, was added to the wells yielding a final total volume of 200 microliters.
Thrombin catalytic activity was determined using the chromogenic substrate Pefachrome t-PA (CH3 SO2 -D-hexahydrotyrosine-glycyl-L-arginine-p-nitroanilide, obtained from Pentapharm Ltd.).

[4] = tested on: trypsin, plasmin and kallikrein; conditions: literature; cited from earlier work
[5] = literature; cited from earlier work
[6] = literature; cited from earlier work; remark: listed apart in the source
[7] = tested on: thrombin; conditions: cited from earlier work
[8] = tested on: thrombosis; conditions: literature; cited from earlier work
[9] = tested on: atherosclerotic rabbit femoral artery; conditions: following mechanical damage; literature; cited from earlier work
[10] = first of the two values in the cell (two isomeric pair), or the only value

`CCCC(CCC)C(=O)N[C@@H](CC(=O)OC)C(=O)N1CCC[C@H]1C(=O)N[C@@H](C=O)CC1CCCN(C(=N)N)C1` (single isomer, unassigned) [Isomer 11B(D)] showed an IC50 [1, 10] of 2590 nM.

`CCCC(CCC)C(=O)N[C@@H](CC(=O)OC)C(=O)N1CCC[C@H]1C(=O)N[C@H](C=O)CC1CCCN(C(=N)N)C1` (single isomer, unassigned) [Isomer 11B, alpha-N-(propylpentanoyl)-aspartyl(beta-methyl ester)-prolyl-3-[3-piperidyl-(N-guanidino)]-L-alaninal] showed an IC50 [1, 10] of 67 nM, an IC50 ([1]; second of the two values in the cell (two isomeric pair)) of 113 nM and an ED50 [2] of 5 mg/kg.

In the case of `CCCC(CCC)C(=O)N[C@@H](Cc1nnn[nH]1)C(=O)N1CCC[C@H]1C(=O)N[C@H](C=O)CC1CCCN(C(=N)N)C1` (single isomer, unassigned) [Isomer 19B], the IC50 [3] is reported as 3.11 nM and the IC50 [1, 10] is reported as 150 nM.

In the case of `N=C(N)c1ccc(CC(=O)C(=O)O)cc1` [APPA, 4-amidinophenylpyruvic acid], the “selectivity (in words)” value [4] is given as “non-selective, inhibiting trypsin, plasmin and kallikrein”, the “toxicity (in words)” value [5] is given as “low toxicity” and the “pharmacokinetics (in words)” value [6] is given as “favourable pharmacokinetics”.

For `CC(=O)N[C@H](Cc1ccccc1)C(=O)N1CCC[C@H]1C(=O)N[C@@H](CCCNC(=N)N)B(O)O` [Ac-(D-Phe)-Pro-boroArg, acetyl-D-phenylalanyl-prolyl-boroarginine], the “inhibition of thrombin (in words)” value ([7]; literature) is given as “inhibit thrombin by directly binding to the active site”.

For `CC1CNc2c(cccc2S(=O)(=O)N[C@@H](CCCNC(=N)N)C(=O)N2CC[C@@H](C)C[C@@H]2C(=O)O)C1` (stereo partly drawn) [Argatroban, 2R,4R-4-methyl-1-[N-2-(3-methyl-1,2,3,4-tetrahydro-8-quinolinesulfonyl)-L-argininal]-2-piperdinecarboxylic acid], the “inhibition of thrombin (in words)” value [7] is listed as “bind directly to the active site of thrombin” and the “antithrombotic effect (in words)” value [8] is listed as “potent antithrombotic agent in several experimental models of acute arterial thrombosis”.

In the case of `N=C(N)NCCC[C@@H](C=O)NC(=O)[C@@H]1CCCN1C(=O)[C@H](N)Cc1ccccc1` [D-Phe-Pro-Arg-a1, D-phenylalanyl-prolyl-argininal], the “inhibition of thrombin (in words)” value [7] is given as “inhibit thrombin by directly binding to the active site”.

In the case of `CS(=O)(=O)O.CS(=O)(=O)O.N=C(N)Nc1ccc(C(=O)Oc2ccc3cc(C(=N)N)ccc3c2)cc1` [FUT 175, 6-amidino-2-naphthyl-4-guanidinobenzoate dimethanesulfonate], the “selectivity (in words)” value [4] is listed as “non-selective”.

For `N=C(N)NCCC[C@H](NC(=O)[C@@H]1CCCN1C(=O)[C@H](N)Cc1ccccc1)C(=O)CCl` [P-PACK, D-phenylalanyl-prolyl-arginine-chloromethyl ketone], the “inhibition of thrombin (in words)” value [7] is listed as “inhibit thrombin by directly binding to the active site”.

In the case of Hirudin, the “inhibition of thrombin (in words)” value ([7]; literature) is listed as “one of the most potent inhibitors of thrombin known”, the “antithrombotic effect (in words)” value [8] is listed as “potent antithrombotic agent in vivo” and the “smooth muscle proliferation and restenosis (in words)” value [9] is listed as “effectively inhibit smooth muscle proliferation and the associated restenosis”.
